Assay results published in ChEMBL document CHEMBL1152871, “Synthesis of citrate-ciprofloxacin conjugates” (2009).

Key:
Format in all cases: functional
Staphylococcus aureus [1] = experiment: Antimicrobial activity against Staphylococcus aureus NCTC 6571 at 5 ug/disk after 18 to 20 hrs by disk diffusion assay; settings: read-out: IZ
Staphylococcus aureus [2] = experiment: Antimicrobial activity against Staphylococcus aureus NCTC 10399 at 5 ug/disk after 18 to 20 hrs by disk diffusion assay; settings: read-out: IZ
Staphylococcus aureus [3] = experiment: Antimicrobial activity against ciprofloxacin and methicillin-resistant Staphylococcus aureus HG-1 at 5 ug/disk after 18 to 20 hrs by disk diffusion assay; settings: read-out: IZ
Staphylococcus aureus [4] = experiment: Antimicrobial activity against epidemic methicillin-resistant Staphylococcus aureus NCTC 13142 at 5 ug/disk after 18 to 20 hrs by disk diffusion assay; settings: read-out: IZ
Staphylococcus aureus [5] = experiment: Antimicrobial activity against ciprofloxacin and epidemic methicillin-resistant Staphylococcus aureus NCTC 13143 at 5 ug/disk after 18 to 20 hrs by disk diffusion assay; settings: read-out: IZ
[6] = system: Staphylococcus epidermidis; experiment: Antimicrobial activity against Staphylococcus epidermidis NCTC 11047 at 5 ug/disk after 18 to 20 hrs by disk diffusion assay; settings: read-out: IZ
[7] = system: Staphylococcus epidermidis; experiment: Antimicrobial activity against Staphylococcus epidermidis NCTC 2749 at 5 ug/disk after 18 to 20 hrs by disk diffusion assay; settings: read-out: IZ
[8] = system: Staphylococcus haemolyticus; experiment: Antimicrobial activity against Staphylococcus haemolyticus NCTC 11042 at 5 ug/disk after 18 to 20 hrs by disk diffusion assay; settings: read-out: IZ
Staphylococcus aureus [9] = experiment: Antimicrobial activity against ciprofloxacin and epidemic methicillin-resistant Staphylococcus aureus BIG 0052 at 5 ug/disk after 18 to 20 hrs by disk diffusion assay; settings: read-out: IZ
Pseudomonas aeruginosa [10] = experiment: Antimicrobial activity against Pseudomonas aeruginosa NCTC 6749 at 5 ug/disk after 18 to 20 hrs by disk diffusion assay; settings: read-out: IZ
Pseudomonas aeruginosa [11] = experiment: Antimicrobial activity against Pseudomonas aeruginosa BIG 0039 at 5 ug/disk after 18 to 20 hrs by disk diffusion assay; settings: read-out: IZ
Pseudomonas aeruginosa [12] = experiment: Antimicrobial activity against Pseudomonas aeruginosa BIG 0037 at 5 ug/disk after 18 to 20 hrs by disk diffusion assay; settings: read-out: IZ
Pseudomonas aeruginosa [13] = experiment: Antimicrobial activity against Pseudomonas aeruginosa NCTC 10662 at 5 ug/disk after 18 to 20 hrs by disk diffusion assay; settings: read-out: IZ
Pseudomonas aeruginosa [14] = experiment: Antimicrobial activity against Pseudomonas aeruginosa BIG 0063 at 5 ug/disk after 18 to 20 hrs by disk diffusion assay; settings: read-out: IZ
Serratia marcescens = experiment: Antimicrobial activity against Serratia marcescens NCTC 1377 at 5 ug/disk after 18 to 20 hrs by disk diffusion assay; settings: read-out: IZ
Burkholderia cepacia = experiment: Antimicrobial activity against Burkholderia cepacia NCTC 10744 at 5 ug/disk after 18 to 20 hrs by disk diffusion assay; settings: read-out: IZ
Escherichia coli [15] = experiment: Antimicrobial activity against ciprofloxacin-resistant Escherichia coli BIG 0046 at 5 ug/disk after 18 to 20 hrs by disk diffusion assay; settings: read-out: IZ
Escherichia coli [16] = experiment: Antimicrobial activity against Escherichia coli NCTC 10418 at 5 ug/disk after 18 to 20 hrs by disk diffusion assay; settings: read-out: IZ
Escherichia coli [17] = experiment: Antimicrobial activity against ciprofloxacin-resistant Escherichia coli BIG 0051 at 5 ug/disk after 18 to 20 hrs by disk diffusion assay; settings: read-out: IZ
Escherichia coli [18] = experiment: Antimicrobial activity against wild-type Escherichia coli K-12 BW-25113 at 0.15 ug after overnight incubation in presence of 1 uM Fe3-cation
Escherichia coli [19] = experiment: Antimicrobial activity against wild-type Escherichia coli K-12 BW-25113 at 0.15 ug after overnight incubation in presence of 1000 uM Fe3-cation
Escherichia coli [20] = experiment: Antimicrobial activity against isogenic Escherichia coli K-12 […] mutant at 0.15 ug after overnight incubation in presence of 1 uM Fe3-cation
Escherichia coli [21] = experiment: Antimicrobial activity against isogenic Escherichia coli K-12 […] mutant at 0.15 ug after overnight incubation in presence of 1000 uM Fe3-cation

## O=C(O)c1cn(C2CC2)c2cc(N3CCNCC3)c(F)cc2c1=O [CIPROFLOXACIN]
Staphylococcus aureus [1]
  zone of inhibition at 5 µg/disc: 24 mm
Staphylococcus aureus [2]
  zone of inhibition at 5 µg/disc: 27 mm
Staphylococcus aureus [3]
  zone of inhibition at 5 µg/disc: 0 mm
Staphylococcus aureus [4]
  zone of inhibition at 5 µg/disc: 22 mm
Staphylococcus aureus [5]
  zone of inhibition at 5 µg/disc: 0 mm
[6]
  zone of inhibition at 5 µg/disc: 25 mm
[7]
  zone of inhibition at 5 µg/disc: 29 mm
[8]
  zone of inhibition at 5 µg/disc: 25 mm
Staphylococcus aureus [9]
  zone of inhibition at 5 µg/disc: 0 mm
Pseudomonas aeruginosa [10]
  zone of inhibition at 5 µg/disc: 35 mm
Pseudomonas aeruginosa [11]
  zone of inhibition at 5 µg/disc: 27 mm
Pseudomonas aeruginosa [12]
  zone of inhibition at 5 µg/disc: 31 mm
Pseudomonas aeruginosa [13]
  zone of inhibition at 5 µg/disc: 31 mm
Pseudomonas aeruginosa [14]
  zone of inhibition at 5 µg/disc: 32 mm
Serratia marcescens
  zone of inhibition at 5 µg/disc: 30 mm
Burkholderia cepacia
  zone of inhibition at 5 µg/disc: 22 mm
Escherichia coli [15]
  zone of inhibition at 5 µg/disc: 0 mm
Escherichia coli [16]
  zone of inhibition at 5 µg/disc: 32 mm
Escherichia coli [17]
  zone of inhibition at 5 µg/disc: 0 mm

## O=C(O)CC(O)(CC(=O)O)C(=O)N1CCN(c2cc3c(cc2F)c(=O)c(C(=O)O)cn3C2CC2)CC1
Staphylococcus aureus [1]
  zone of inhibition at 5 µg/disc: 20 mm
Staphylococcus aureus [2]
  zone of inhibition at 5 µg/disc: 23 mm
Staphylococcus aureus [3]
  zone of inhibition at 5 µg/disc: 0 mm
Staphylococcus aureus [4]
  zone of inhibition at 5 µg/disc: 21 mm
Staphylococcus aureus [5]
  zone of inhibition at 5 µg/disc: 0 mm
[6]
  zone of inhibition at 5 µg/disc: 21 mm
[7]
  zone of inhibition at 5 µg/disc: 24 mm
[8]
  zone of inhibition at 5 µg/disc: 20 mm
Staphylococcus aureus [9]
  zone of inhibition at 5 µg/disc: 0 mm
Pseudomonas aeruginosa [12]
  zone of inhibition at 5 µg/disc: 24 mm
Pseudomonas aeruginosa [14]
  zone of inhibition at 5 µg/disc: 24 mm
Serratia marcescens
  zone of inhibition at 5 µg/disc: 25 mm
Burkholderia cepacia
  zone of inhibition at 5 µg/disc: 18 mm
Escherichia coli [15]
  zone of inhibition at 5 µg/disc: 0 mm
Escherichia coli [16]
  zone of inhibition at 5 µg/disc: 27 mm
Escherichia coli [17]
  zone of inhibition at 5 µg/disc: 0 mm

## O=C(O)CC(O)(CC(=O)N1CCN(c2cc3c(cc2F)c(=O)c(C(=O)O)cn3C2CC2)CC1)C(=O)O (centres undefined)
Staphylococcus aureus [1]
  zone of inhibition at 5 µg/disc: 17 mm
Staphylococcus aureus [2]
  zone of inhibition at 5 µg/disc: 20 mm
Staphylococcus aureus [3]
  zone of inhibition at 5 µg/disc: 0 mm
[6]
  zone of inhibition at 5 µg/disc: 28 mm
[7]
  zone of inhibition at 5 µg/disc: 28 mm
[8]
  zone of inhibition at 5 µg/disc: 30 mm
Staphylococcus aureus [9]
  zone of inhibition at 5 µg/disc: 0 mm
Pseudomonas aeruginosa [10]
  zone of inhibition at 5 µg/disc: 23 mm
Pseudomonas aeruginosa [11]
  zone of inhibition at 5 µg/disc: 18 mm
Pseudomonas aeruginosa [12]
  zone of inhibition at 5 µg/disc: 25 mm
Pseudomonas aeruginosa [13]
  zone of inhibition at 5 µg/disc: 23 mm
Burkholderia cepacia
  zone of inhibition at 5 µg/disc: 18 mm
Escherichia coli [15]
  zone of inhibition at 5 µg/disc: 0 mm
Escherichia coli [16]
  zone of inhibition at 5 µg/disc: 30 mm
Escherichia coli [17]
  zone of inhibition at 5 µg/disc: 0 mm
Escherichia coli [18]
  inhibition zone (IZ): 1.1 cm
Escherichia coli [19]
  inhibition zone (IZ): 1.3 cm
Escherichia coli [20]
  inhibition zone (IZ): 0.6 cm
Escherichia coli [21]
  inhibition zone (IZ): 0.8 cm
